# Reference: US20090246302A1, “COMPOSITION AND METHOD FOR PROTECTING AGRICULTURAL CROPS AND/OR AGRICULTURAL PRODUCTS” (priority 2008, published 2009)
# Like-named read-outs stand apart in the source and are kept apart here.
# Experiments:
# Format in all cases: in vivo
# C. cephalonica larvae [1] = conditions: field evaluation, dosage of 25 mg/25 Kg
# C. chinensis adult [2] = test: whole plant or invertebrate; conditions: Callosobruchus chinensis, read-out: Mean (%) mortality of insects, laboratory trials; for mortality at 750 mg/kg: dosage of 750 mg/kg; for mortality at 1000 mg/kg: dosage of 1 g/kg
# Procedure: (§1) The composition for protecting agricultural products was prepared. A new method was employed using rice bran, as carrier material. 500 g of clean and uncontaminated rice bran collected from the rice mills was completely dehydrated by sun drying. 25 g of the botanical extract of the P. betel in 125 ml of acetone was sprayed uniformly on to the rice bran. Mixed manually and allowed to shade dry for about 20 min.
# S. oryzae [3] = test: whole plant or invertebrate; conditions: Sitophilus oryzae, laboratory trials, read-out: Mean (%) mortality of insects; for mortality at 750 mg/kg: dosage of 750 mg/kg; for mortality at 1000 mg/kg: dosage of 1 g/kg
# Procedure: as §1
# C. cephalonica larvae [4] = test: whole plant or invertebrate; conditions: Corcyra cephalonica, read-out: Mean (%) mortality of insects, laboratory trials; for mortality at 750 mg/kg: dosage of 750 mg/kg; for mortality at 1000 mg/kg: dosage of 1 g/kg
# Procedure: as §1
# T. granarium adult [5] = test: whole plant or invertebrate; conditions: Trogoderma granarium, read-out: Mean (%) mortality of insects, laboratory trials; for mortality at 750 mg/kg: dosage of 750 mg/kg; for mortality at 1000 mg/kg: dosage of 1 g/kg
# Procedure: as §1
# T. granarium adult [6] = conditions: field evaluation, dosage of 25 mg/25 Kg
# C. chinensis adult [7] = conditions: field evaluation, dosage of 25 mg/25 Kg
# S. oryzae [8] = conditions: field evaluation, dosage of 25 mg/25 Kg
smiles,measurement,setting,value
"C=CCc1ccc(O)c(OC)c1 [Eugenol, 4-Allyl-2-methoxyphenol]",Mean (%) mortality of insects,C. cephalonica larvae [1]; 1st week,100%
same,Mean (%) mortality of insects,C. cephalonica larvae [1]; 2nd week,100%
same,Mean (%) mortality of insects,C. cephalonica larvae [1]; 3rd week,89%
same,Mean (%) mortality of insects,C. cephalonica larvae [1]; 4th week,66%
same,Mean (%) mortality of insects,C. cephalonica larvae [1]; 5th week,23%
same,Mean (%) mortality of insects,C. cephalonica larvae [1]; 6th week,0%
same,Mean (%) mortality of insects,C. cephalonica larvae [1]; 7th week,0%
same,mortality at 750 mg/kg,C. chinensis adult [2]; 1st week,100%
same,mortality at 750 mg/kg,C. chinensis adult [2]; 2nd week,100%
same,mortality at 750 mg/kg,C. chinensis adult [2]; 3rd week,58.4%
same,mortality at 750 mg/kg,C. chinensis adult [2]; 4th week,20%
same,mortality at 750 mg/kg,C. chinensis adult [2]; 5th week,0%
same,mortality at 750 mg/kg,C. chinensis adult [2]; 6th week,0%
same,mortality at 1000 mg/kg,C. chinensis adult [2]; 1st week,100%
same,mortality at 1000 mg/kg,C. chinensis adult [2]; 2nd week,100%
same,mortality at 1000 mg/kg,C. chinensis adult [2]; 3rd week,63%
same,mortality at 1000 mg/kg,C. chinensis adult [2]; 4th week,35%
same,mortality at 1000 mg/kg,C. chinensis adult [2]; 5th week,20%
same,mortality at 1000 mg/kg,C. chinensis adult [2]; 6th week,0%
same,mortality at 750 mg/kg,S. oryzae [3]; 1st week,100%
same,mortality at 750 mg/kg,S. oryzae [3]; 2nd week,100%
same,mortality at 750 mg/kg,S. oryzae [3]; 3rd week,40%
same,mortality at 750 mg/kg,S. oryzae [3]; 4th week,20%
same,mortality at 750 mg/kg,S. oryzae [3]; 5th week,0%
same,mortality at 750 mg/kg,S. oryzae [3]; 6th week,0%
same,mortality at 1000 mg/kg,S. oryzae [3]; 1st week,100%
same,mortality at 1000 mg/kg,S. oryzae [3]; 2nd week,100%
same,mortality at 1000 mg/kg,S. oryzae [3]; 3rd week,40%
same,mortality at 1000 mg/kg,S. oryzae [3]; 4th week,35%
same,mortality at 1000 mg/kg,S. oryzae [3]; 5th week,25%
same,mortality at 1000 mg/kg,S. oryzae [3]; 6th week,0%
same,mortality at 750 mg/kg,C. cephalonica larvae [4]; 1st week,100%
same,mortality at 750 mg/kg,C. cephalonica larvae [4]; 2nd week,100%
same,mortality at 750 mg/kg,C. cephalonica larvae [4]; 3rd week,53.3%
same,mortality at 750 mg/kg,C. cephalonica larvae [4]; 4th week,13.3%
same,mortality at 750 mg/kg,C. cephalonica larvae [4]; 5th week,0%
same,mortality at 750 mg/kg,C. cephalonica larvae [4]; 6th week,0%
same,mortality at 1000 mg/kg,C. cephalonica larvae [4]; 1st week,100%
same,mortality at 1000 mg/kg,C. cephalonica larvae [4]; 2nd week,100%
same,mortality at 1000 mg/kg,C. cephalonica larvae [4]; 3rd week,74%
same,mortality at 1000 mg/kg,C. cephalonica larvae [4]; 4th week,29%
same,mortality at 1000 mg/kg,C. cephalonica larvae [4]; 5th week,13.3%
same,mortality at 1000 mg/kg,C. cephalonica larvae [4]; 6th week,0%
same,mortality at 750 mg/kg,T. granarium adult [5]; 1st week,100%
same,mortality at 750 mg/kg,T. granarium adult [5]; 2nd week,100%
same,mortality at 750 mg/kg,T. granarium adult [5]; 3rd week,26%
same,mortality at 750 mg/kg,T. granarium adult [5]; 4th week,13.3%
same,mortality at 750 mg/kg,T. granarium adult [5]; 5th week,0%
same,mortality at 750 mg/kg,T. granarium adult [5]; 6th week,0%
same,mortality at 1000 mg/kg,T. granarium adult [5]; 1st week,100%
same,mortality at 1000 mg/kg,T. granarium adult [5]; 2nd week,100%
same,mortality at 1000 mg/kg,T. granarium adult [5]; 3rd week,40%
same,mortality at 1000 mg/kg,T. granarium adult [5]; 4th week,23%
same,mortality at 1000 mg/kg,T. granarium adult [5]; 5th week,0%
same,mortality at 1000 mg/kg,T. granarium adult [5]; 6th week,0%
same,Mean (%) mortality of insects,T. granarium adult [6]; 1st week,100%
same,Mean (%) mortality of insects,T. granarium adult [6]; 2nd week,100%
same,Mean (%) mortality of insects,T. granarium adult [6]; 3rd week,72%
same,Mean (%) mortality of insects,T. granarium adult [6]; 4th week,42%
same,Mean (%) mortality of insects,T. granarium adult [6]; 5th week,20%
same,Mean (%) mortality of insects,T. granarium adult [6]; 6th week,0%
same,Mean (%) mortality of insects,T. granarium adult [6]; 7th week,0%
same,Mean (%) mortality of insects,C. chinensis adult [7]; 1st week,100%
same,Mean (%) mortality of insects,C. chinensis adult [7]; 2nd week,100%
same,Mean (%) mortality of insects,C. chinensis adult [7]; 3rd week,100%
same,Mean (%) mortality of insects,C. chinensis adult [7]; 4th week,53%
same,Mean (%) mortality of insects,C. chinensis adult [7]; 5th week,39%
same,Mean (%) mortality of insects,C. chinensis adult [7]; 6th week,12.4%
same,Mean (%) mortality of insects,C. chinensis adult [7]; 7th week,0%
same,Mean (%) mortality of insects,S. oryzae [8]; 1st week,100%
same,Mean (%) mortality of insects,S. oryzae [8]; 2nd week,100%
same,Mean (%) mortality of insects,S. oryzae [8]; 3rd week,85%
same,Mean (%) mortality of insects,S. oryzae [8]; 4th week,50%
same,Mean (%) mortality of insects,S. oryzae [8]; 6th week,0%
same,Mean (%) mortality of insects,S. oryzae [8]; 7th week,0%
